Laboratory results reported in article PMC3665789 (PLoS ONE, 2013).
Read-outs that look alike come from different tables or passages of the source.

Legend:
[1] = tested on: Lactobacillus strains; assay: Vaginal Lactobacillus growth assay; format: cell-based; settings: dose up to 120 µM; 24 h, OD600
Protocol: Lactobacillus strains grown overnight to stationary phase (OD600 nm ∼1.8–2.0) were used as inocula for the assay. The assay was performed in 96-well microtiter plates. Sterile wells were filled with 200 µl MRS (de Man – Rogosa – Sharpe) medium (BD Biosciences). About 0.5×10^7 colony forming units or CFUs (1/100 of an overnight culture) were added and then 5-fold dilution series of different concentrations of the used compounds were administered. The plates were incubated without shaking for 24 h at 37°C. The OD600 nm was measured after 24 h and as a negative control, each strain was grown in medium without compound (Petrova et al., in preparation).

[2] = tested on: HSV-1 TK^-; settings: read-out: Median EC50; median over HSV-1 TK- strains; HEL cells
[3] = tested on: HIV-1 IIIB (X4); settings: read-out: EC50 (µM ± SEM), MT-4 cells, MTS/PES method
[4] = tested on: HIV-1 NL4.3^AMD3100res. (X4); settings: read-out: EC50 (µM ± SEM); MT-4 cells; NL4.3 resistant to AMD3100; MTS/PES
[5] = tested on: HIV-1 clinical isolates
[6] = tested on: HSV-1 wild-type RV-174 (clinical isolate); settings: HEL cells; HSV-1 RV-174; CPE
[7] = tested on: HIV-induced cell-cell syncytia formation (HUT-78/IIIB and SupT1 cells); assay: Giant cell cocultivation assay (HUT-78/IIIB + SupT1); format: cell-based, HIV-1
Protocol: The cocultivation experiments were performed as described previously. In brief, LabyA1 was diluted in cell culture medium and 100 µl was added in 96-well plate (BD, Falcon) along with the SupT1 T cells (1×10^5 cells/50 µl). The same amount of persistently HIV-infected HUT-78/IIIB cells were seeded and incubated at 37°C for 24 h. The next day, giant cell formation was scored microscopically and in addition the depletion of the CD4^+ SupT1 cells was measured by flow cytometry.
The depletion of the target CD4^+ SupT1 T cells in the cocultivation assays was measured using PE-conjugated […] (BD Biosciences). The cells were incubated for 30 minutes at room temperature with anti-CD28-PE. After several washing steps, the cells were fixed with a 1% paraformaldehyde solution and analyzed by flow cytometry.

[8] = tested on: HSV-1 wild-type C559142 (clinical isolate); settings: HEL cells; HSV-1 C559142; CPE
[9] = tested on: PBMCs; assay: Bio-Plex cytokine/chemokine detection assay; format: cell-based; settings: 24 h; 9.6 µM LabyA1 versus 0.078 µM PHA; 27-plex
Protocol: Freshly isolated PBMCs from 4 individual donors were incubated for 24 h with 9.6 µM LabyA1 or 0.078 µM PHA. The cytokine/chemokine concentration in the cell culture supernatant was determined by the Bio-Plex 200 System (Bio-Rad, Hercules, CA) using the Bio-Plex Human Cytokine 27-Plex assay as described earlier.

[10] = Cytotoxicity assay (MTS/PES); format: cell-based, human; settings: HEL cells, 3 days
Protocol: Cytotoxicity in PBMCs (3 days), MT-4 (5 days), HUT-78 (1 day), C8166-(5 days), HEL (3 days) and Daudi cells (3 days) was measured using the MTS/PES method. The duration of the assays is given between brackets.

[11] = tested on: HIV-1 BaL (R5); settings: read-out: EC50 (µM ± SEM), MDM, p24 Ag ELISA
Protocol: Afterwards, the non-adherent cells were gently mixed and removed from the adherent cell layer. The cells were carefully washed and this washing step was repeated after 6 days of incubation at 37°C. The adherent cells were then infected with HIV-1 R5 BaL.
MDM were seeded in a 48-well plate in 1 ml medium. […] Each concentration was tested in triplicate. After an incubation of 30 minutes at 37°C, 1000 pg/well of p24 Ag of HIV-1 R5 BaL was added. Three weeks post-infection, supernatant was collected and viral replication evaluated by p24 HIV-1 Ag ELISA.

[12] = tested on: HIV-1 NL4.3^RALres. (X4); settings: read-out: EC50 (µM ± SEM); MT-4 cells; NL4.3 resistant to raltegravir (RAL); MTS/PES
[13] = molecular target: T1, CCR5 (Homo sapiens, UniProt P51681); assay: Intracellular calcium mobilization (FLIPR), U87.CD4.CCR5 cells; format: cell-based; settings: 9.6 µM
T1 construct: expressed in transfected cells; host or cells: U87.CD4.CCR5 (human astroglioma U87)
Protocol: Calcium (Ca^2+) mobilization assays were performed by the use of a fluorometric imaging plate reader (FLIPR) (Molecular Devices, Sunnyvale, CA) as described previously. Briefly, U87.CD4.CCR5 or U87.CD4.CXCR4 cells were digested by trypsin and seeded in gelatine-coated black-wall 96-well microplates at 2×10^4 cells per well. The next day, the cells were loaded with the fluorescent calcium indicator Fluo-3 acetoxymethyl ester (Molecular Probes, Leiden, The Netherlands) at 4 µM for 45 min at 37°C. Cells were washed 3 times in assay buffer (Hanks’ balanced salt solution with 20 mM HEPES buffer and 0.2% bovine serum albumin, pH 7.4) and incubated for 10 min with Laby A1. The intracellular calcium mobilization induced by LD78β in U87.CD4.CCR5 cells or by SDF-1 in U87.CD4.CXCR4 cells was then measured at 37°C by monitoring the fluorescence as a function of time simultaneously in all the wells. In addition, potential intracellular calcium mobilization induced by Laby A1 was also investigated.

[14] = tested on: HIV-1 NL4.3^T20res. (X4); settings: read-out: EC50 (µM ± SEM); MT-4 cells; NL4.3 resistant to enfuvirtide (T20); MTS/PES
[15] = tested on: HIV-1 R5 BaL in PBMCs; assay: Susceptibility of pre-treated PBMCs for HIV-1 infection; settings: washed, HIV-1 BaL, day 7
Protocol: The next day, cells were collected, extensively washed in culture medium, resuspended (5×10^5 cells/450 µl) and seeded in a 48-well plate. Immediately afterwards, 50 µl of HIV-1 R5 strain BaL (500 pg/well) was added and cells were cultures for 7 days. Supernatant was collected 7 days post virus infection and viral replication was determined by p24 HIV-1 Ag ELISA.

T1 sequence (P51681 whole entry): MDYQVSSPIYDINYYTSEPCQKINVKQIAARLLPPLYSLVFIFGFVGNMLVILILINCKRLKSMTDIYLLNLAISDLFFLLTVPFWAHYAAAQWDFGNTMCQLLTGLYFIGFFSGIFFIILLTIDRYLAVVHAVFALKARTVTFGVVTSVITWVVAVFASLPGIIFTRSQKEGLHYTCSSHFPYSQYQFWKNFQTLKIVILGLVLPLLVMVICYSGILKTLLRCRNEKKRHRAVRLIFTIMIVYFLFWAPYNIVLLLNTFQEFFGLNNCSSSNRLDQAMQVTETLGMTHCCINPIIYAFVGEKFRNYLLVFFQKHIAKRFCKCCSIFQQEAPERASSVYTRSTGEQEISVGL

## C/C=C1\NC(=O)[C@H](Cc2ccccc2)NC(=O)[C@@H]2CCCN2C(=O)[C@H](C(C)C)NC(=O)[C@H](Cc2c[nH]c3ccccc23)NC(=O)[C@]23CSC[C@H](NC1=O)C(=O)N[C@H](C(=O)O)CSSC[C@H](NC(=O)[C@@H]1CSC[C@]4(C[C@H](N)C(=O)N[C@@H](CC(N)=O)C(=O)N[C@@H](C)C(=O)N4)C(=O)N[C@@H](C(C)C)C(=O)N[C@@H](Cc4c[nH]c5ccccc45)C(=O)N[C@@H](CCC(=O)O)C(=O)N1)C(=O)N[C@@H](C2)C(=O)N[C@@H]([C@@H](C)O)C(=O)NCC(=O)N3 [LabyA1, labyrinthopeptin A1]
[1]
  growth inhibitory effects on Lactobacillus strains: no growth inhibitory effects were observed
[2]
  EC50: 1900 nM
[3]
  EC50: 2 ± 0.6 µM
[4]
  EC50: 2.4 ± 0.5 µM
[5]; read-out: EC50 range, range over 9 HIV-1 clinical isolates in PBMCs
  EC50: 700 to 1900 nM
[5]; read-out: Median EC50, median over 9 HIV-1 clinical isolates in PBMCs
  EC50: 1000 nM
[6]
  EC50: 2700 ± 1000 nM
[7]; 0.96 µM, light microscopy
  activity in cell-cell fusion assay: no activity was observed
[7]; 4.8 µM, light microscopy
  giant cell formation: some giant cells were formed
[7]; 24 µM, light microscopy
  giant cell formation: completely inhibited
[7]; 24 h coculture, CD28 flow cytometry, read-out: EC50, survival of SupT1 T cells in coculture with HUT-78/IIIB cells
  EC50: 2500 nM
[8]
  EC50: 450 ± 20 nM
[9]
  cytokine/chemokine response of treated PBMCs: much weaker, if any
[10]
  CC50: > 48000 nM
[11]
  EC50: 2.4 ± 0.8 µM
[12]
  EC50: 0.88 ± 0.08 µM
[13]
  induction of calcium signaling by compound itself: could not induce by itself calcium signaling
[13]; 10 ng/ml LD78β
  inhibition of LD78β (CCL3L1)-induced intracellular calcium flux: could also not inhibit the intracellular calcium flux
[14]
  EC50: 2.3 ± 0.3 µM
[15]; PBMCs pre-treated 24 h with 1.9 µM
  p24 HIV-1 Ag production after pre-treatment: 12.26 ± 4.61 ng/mL
[15]; PBMCs pre-treated 24 h with 9.6 µM, no compound 12.69±4.83
  p24 HIV-1 Ag production after pre-treatment: 15.37 ± 3.75 ng/mL
